Results: PubChem BioAssay (NCI)
Where “and” joins values, the source holds several entries; their conditions need not be identical. Equal entries are not always repeated.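 A five-concentration, 48-hour dose response in 96-well plates underlies each endpoint, interpolated linearly between surrounding concentrations. GI50 marks 50% less growth. TGI is the concentration that stops growth completely.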

Experiments:
Assay in all cases: NCI tumour cell line growth inhibition, 48 h
LXFL 529 NSCLC = system: LXFL 529 NSCLC
DMS 114 small cell lung = system: DMS 114 small cell lung
RXF-631 renal = system: RXF-631 renal
XF 498 CNS = system: XF 498 CNS
NCI/ADR-RES ovarian = system: NCI/ADR-RES ovarian
MDA-N = system: MDA-N
PC-3 prostate = system: PC-3 prostate
BT-549 breast = system: BT-549 breast
HS 578T breast = system: HS 578T breast

Row | Compound | TGI (LXFL 529 NSCLC) [µM] | TGI (DMS 114 small cell lung) [µM] | TGI (RXF-631 renal) [µM] | TGI (XF 498 CNS) [µM] | other results
1 | COc1ccc(C(=O)NCCN(C)C)c2nc3ccccc3nc12 | > 37.9 | 12.5 | > 100 | – | –
2 | COC(=O)C1(C(=O)OC)CC(=O)c2cc3c(cc2-c2c(cc(OC)c(OC)c2OC)C1)OCO3 | > 211 | – | > 211 | – | –
3 | Cc1c(C(=O)O)oc2ccc([N+](=O)[O-])cc12 | > 100 | > 100 | > 100 | > 100 | –
4 | CSC1=Nc2ccccc2N=C(c2ccc(Cl)cc2)C1 | > 100 | – | – | > 100 | –
5 | CSc1nnc(COc2ccc(Cl)cc2)o1 | > 100 | > 100 | – | > 100 | –
6 | C[N+](C)(C)CC1CCCCC1O (centres undefined) | > 100 | – | > 100 | – | –
7 | CC(=O)N1CCC2(c3ccccc3N(C(C)=O)C2c2ccc(O)cc2)C1C(=O)O (centres undefined) | > 100 | > 100 | – | > 100 | –
8 | CCOC(=O)C(NC(=O)c1nc[nH]c1[N+](=O)[O-])C(C)C (centres undefined) | > 100 | > 100 | – | 93.2 | –
9 | O=C(N/N=C/c1cccc(F)c1)c1ccncc1 | > 100 | > 100 | – | > 100 | –
10 | Cc1ccccc1NC(=O)C1C(=O)N(c2ccccc2C)C(=O)/C1=N\NC(N)=S (centres undefined) | > 100 | – | > 100 | > 100 | –
11 | CCNC(=O)COc1ccc(Cl)cc1Cl | > 100 | > 100 | > 100 | – | –
12 | CCCCN(CC)CC(C(C)=O)c1c(O)c2ccccc2oc1=O (centres undefined) | > 100 | > 100 | – | > 100 | –
13 | CC(C)(Oc1ccc(/C=C/C(=O)c2ccc(Cl)cc2)cc1)C(=O)Nc1c(Cl)cccc1Cl | 53.9 | 33.7 | 45.3 | 37.7 | –
14 | O=[N+]([O-])c1ccc(-c2ccc(-c3csc(Nc4ccccc4)n3)o2)cc1 | 32.9 | 63.5 | – | 32.4 | –
15 | COc1ccc(/C(=N\NC(=S)NN)C(c2ccc(OC)cc2)C2C(=O)Oc3ccccc32)cc1 (centres undefined) | > 100 | > 100 | – | > 100 | GI50 (XF 498 CNS): > 100 µM
16 | C/C(=N/NC(=O)C[N+](C)(C)C)C(CN(C)C)C(=O)Nc1ccccc1 (centres undefined) | > 100 | > 100 | – | > 100 | –
17 | Cn1c2c(c3ccccc31)CCN(CCN1CCN(c3cccc(Cl)c3)CC1)C2=O | > 100 | > 100 | – | 34.5 | –
18 | COc1ccc2[nH]c3c(c2c1)[C@H](C)C[C@@H]1C(=O)N(c2ccccc2)C(=O)[C@H]31 | > 100 | > 100 | 58.7 | 74.1 | –
19 | CCOC(=O)c1cc2c3c(c(O)c(OC)c2s1)N(C(=O)c1cc2c4c(c(O)c(OC)c2s1)N(C(C)=O)CC4)CC3 | > 100 | > 100 | > 100 | 67.8 | –
20 | O=[N+]([O-])c1ccc(Sc2c3ccccc3nc3cc(Cl)ccc23)cc1 | > 100 | > 100 | > 100 | 99.6 | GI50 (LXFL 529 NSCLC): > 100 µM; GI50 (DMS 114 small cell lung): > 100 µM; GI50 (RXF-631 renal): > 100 µM
21 | O=c1oc2ccccc2[n+]([O-])c1-c1ccccc1 | > 100 | > 100 | > 100 | > 100 | –
22 | NC(=S)NN/C=C(\C=Nc1ccccc1)[N+](=O)[O-] | > 100 | > 100 | – | > 100 | –

Row | Compound | TGI (LXFL 529 NSCLC) [µM] | TGI (DMS 114 small cell lung) [µM] | TGI (RXF-631 renal) [µM] | TGI (XF 498 CNS) [µM] | other results
23 | CC(C)(C)c1cc(C=C(C#N)C#N)cc(C(C)(C)C)c1O | 6.59 | 7.3 | – | 3.13 | GI50 (NCI/ADR-RES ovarian): 0.0629 µM; TGI (NCI/ADR-RES ovarian): 15.1 µM and 41.5 µM; GI50 (MDA-N): 0.346 µM; TGI (MDA-N): 56.7 µM; GI50 (PC-3 prostate): 0.0354 µM; TGI (PC-3 prostate): 3.36 µM and 4.17 µM; GI50 (BT-549 breast): 0.141 µM; TGI (BT-549 breast): 0.875 µM and 6.78 µM; GI50 (HS 578T breast): 0.133 µM; TGI (HS 578T breast): 22.7 µM and 4.49 µM
24 | CC(=O)OCC1OC(N2C(=O)C(=O)c3ccccc32)C(OC(C)=O)C(OC(C)=O)C1OC(C)=O (centres undefined) | > 100 | > 100 | > 100 | – | –
25 | O=c1c2cc(Br)ccc2nc(CCl)n1-c1ccc(O)c([N+](=O)[O-])c1 | 39.9 | – | – | 29 | –
26 | CCOC(=O)C1SC(=Nc2ccc(Cl)cc2)N=C1C (centres undefined) | – | 81 | – | 34.2 | –
27 | Cc1cc(N(CCC#N)CCC#N)ccc1/C=C(\NC(=O)/C=C/c1ccccc1)C(=O)NN | > 100 | > 100 | – | > 100 | TGI (NCI/ADR-RES ovarian): > 100 µM; TGI (MDA-N): > 100 µM; TGI (PC-3 prostate): > 100 µM; TGI (BT-549 breast): 80.4 µM; TGI (HS 578T breast): 77.5 µM
28 | C=CC(OCC)(OCC)OCC | > 100 | 31.2 | > 100 | > 100 | –
29 | CSC(=S)N/N=C/c1nccc2ccccc12 | 24.6 | – | > 82.9 | 16.4 | –
30 | Nc1ncnc2c1ncn2CC(O)CO (centres undefined) | > 100 | > 100 | > 100 | – | –
31 | Cc1ccccc1C(=O)N1CCN(C(=O)c2ccccc2C)CC1 | > 100 | – | > 100 | > 100 | –
32 | Cc1c2ccccc2cc2ccc3oc([N+](=O)[O-])cc3c12 | > 100 | > 100 | – | > 100 | –
33 | O=C(O)c1ccccc1/C=N/N=C1c2ccccc2-c2ccccc21 | – | – | – | – | TGI (NCI/ADR-RES ovarian): > 100 µM; TGI (MDA-N): > 100 µM; TGI (PC-3 prostate): 83.4 µM; TGI (BT-549 breast): > 100 µM; TGI (HS 578T breast): 34.7 µM
34 | CC(C)(C)C(=O)[CH-]C(=O)C(C)(C)C.CC(C)(C)C(=O)[CH-]C(=O)C(C)(C)C.CN(C)c1ccc([O-])cc1.CN(C)c1ccc([O-])cc1.[Ti+4] | > 100 | > 100 | > 100 | – | GI50 (LXFL 529 NSCLC): 57.9 µM; GI50 (DMS 114 small cell lung): > 100 µM; GI50 (RXF-631 renal): > 100 µM
35 | CCOC(=O)NC(=O)c1cn(CCN2CCN(C(=O)CCCCCCCCCCC(=O)N3CCN(CCn4cc(C(=O)NC(=O)OCC)c(=O)[nH]c4=O)CC3)CC2)c(=O)[nH]c1=O | > 100 | > 100 | – | > 100 | –
36 | CSC(=NCCc1c[nH]c2ccccc12)NC#N | > 100 | > 100 | – | > 100 | –
37 | c1ccc(N2N=C(c3ccco3)CC2c2ccco2)cc1 (centres undefined) | > 100 | > 100 | – | > 100 | –
38 | O=C(/C=C/c1ccccc1)c1ccc(NCc2nc3ccccc3[nH]2)cc1 | 10.8 | 12.4 | – | 20.5 | –
39 | N/N=C1\C(=O)N(CCc2ccccc2)C(=O)C1C(=O)NCCc1ccccc1 (centres undefined) | > 100 | – | > 100 | > 100 | –
40 | CN(C)C(=S)/N=c1\ssc(=S)n1Cc1ccncc1 | 82.1 | 7.77 | 38.4 | 24.9 | –
41 | CCN(C(=O)/C=C/c1ccco1)c1ccccc1 | – | – | – | – | TGI (NCI/ADR-RES ovarian): > 100 µM; TGI (MDA-N): > 100 µM; TGI (PC-3 prostate): > 100 µM; TGI (BT-549 breast): > 100 µM; TGI (HS 578T breast): > 100 µM
42 | COC(=O)C1(O)CC(=O)CCC1c1ccc(OC)cc1 (centres undefined) | – | > 100 | > 100 | – | –
43 | CC(=O)c1ccc(O)c(CN(C2CCCCC2)C2CCCCC2)c1O | – | – | – | – | TGI (NCI/ADR-RES ovarian): > 100 µM; TGI (MDA-N): > 100 µM; TGI (PC-3 prostate): > 100 µM; TGI (BT-549 breast): > 100 µM; TGI (HS 578T breast): > 100 µM
